In ChEMBL document CHEMBL1140641, “Novel ebselen-porphyrin conjugates: synthesis and nucleic acid interaction study” (Bioorg Med Chem Lett, 2007) one finds Activity data, which are given here for one molecule.

Assay type in all cases: nucleic-acid assay
Common to all, as to design: scale not given: the % may be the effect or the level left
Common to all, as to details: Escherichia coli

The test system of experiment [1] is Nucleic Acid. In words: DNA photocleavage activity assessed as pBluescript form II levels at 20 uM by plasmid DNA relaxation assay.
In experiment [2] the test system is Nucleic Acid. Put plainly: DNA photocleavage activity assessed as pBluescript form II levels at 10 uM by plasmid DNA relaxation assay.
Experiment [3] concerns Nucleic Acid. In words: DNA photocleavage activity assessed as pBluescript form II levels at 1 uM by plasmid DNA relaxation assay.
Experiment [4] concerns Nucleic Acid. In words: DNA photocleavage activity assessed as pBluescript form II levels at 5 uM by plasmid DNA relaxation assay.

As for `O=c1c2ccccc2[se]n1-c1ccc(-c2c3nc(c(-c4ccccc4)c4ccc([nH]4)c(-c4ccccc4)c4nc(c(-c5ccccc5)c5ccc2[nH]5)C=C4)C=C3)cc1`, the Activity was 21% with Nucleic Acid [1], 18% in the experiment on Nucleic Acid [2], 12% in the experiment on Nucleic Acid [3] and 16% with Nucleic Acid [4].
